# Marks after values point to notes of the source that are not given here.
# Legend:
# Type in all cases: in vivo
# [1] = tested on: Puccinia recondite f. sp. tritici (the causal agent of wheat leaf rust); experiment: Test A: wheat leaf rust, preventive spray on wheat seedlings, visual disease rating; conditions: for Test A rating (100 = 100% disease control, 0 = no disease control relative to the controls): wheat leaf rust, preventive spray on wheat seedlings
# From the text: (§1) General protocol for preparing test suspensions for Tests A-D: the test compounds were first dissolved in acetone in an amount equal to 3% of the final volume and then suspended at the desired concentration (in ppm) in acetone and purified water (50/50 mix by volume) containing 250 ppm of the surfactant Trem® 014 (polyhydric alcohol esters). The resulting test suspensions were then used in Tests A-D. Spraying a 200 ppm test suspension to the point of run-off on the test plants was the equivalent of a rate of 800 g/ha.
# The test suspension was sprayed to the point of run-off on wheat seedlings. The following day the seedlings were inoculated with a spore suspension of Puccinia recondite f. sp. tritici (the causal agent of wheat leaf rust) and incubated in a saturated atmosphere at 20° C. for 24 h, and then moved to a growth chamber at 20° C. for 7 days, after which time visual disease ratings were made.
# (§2) Results for Tests A-E are given in Table A. In the Table, a rating of 100 indicates 100% disease control and a rating of 0 indicates no disease control (relative to the controls). A dash (—) indicates no test results. An asterisk “*” next to the rating value indicates a 40 ppm test suspension was used.
# [2] = tested on: Blumeria graminis f. sp. tritici (also known as Erysiphe graminis f. sp. tritici, the causal agent of wheat powdery mildew); experiment: Test D: wheat powdery mildew, preventive spray on wheat seedlings, visual disease rating; conditions: for Test D rating (100 = 100% disease control, 0 = no disease control relative to the controls): wheat powdery mildew, preventive spray on wheat seedlings
# From the text: as §1
# The test suspension was sprayed to the point of run-off on wheat seedlings. The following day the seedlings were inoculated with a spore dust of Blumeria graminis f. sp. tritici, (also known as Erysiphe graminis f. sp. tritici, the causal agent of wheat powdery mildew) and incubated in a growth chamber at 20° C. for 8 days, after which time visual disease ratings were made.
# as §2
# [3] = tested on: Septoria tritici (the causal agent of wheat leaf blotch); experiment: Test B: wheat leaf blotch, preventive spray on wheat seedlings, visual disease rating; conditions: for Test B rating (100 = 100% disease control, 0 = no disease control relative to the controls): wheat leaf blotch, preventive spray on wheat seedlings
# From the text: as §1
# (§3) The test suspension was sprayed to the point of run-off on wheat seedlings. The following day the seedlings were inoculated with a spore suspension of Septoria tritici (the causal agent of wheat leaf blotch) and incubated in a saturated atmosphere at 24° C. for 48 h, and then moved to a growth chamber at 20° C. for 19 days, after which time visual disease ratings were made.
# as §2
# [4] = tested on: Botrytis cinerea (the causal agent of tomato Botrytis); experiment: Test C: tomato Botrytis, preventive spray on tomato seedlings, visual disease rating; conditions: for Test C rating (100 = 100% disease control, 0 = no disease control relative to the controls): tomato Botrytis, preventive spray on tomato seedlings
# From the text: as §1
# as §3, with “tomato” for “wheat”, “Botrytis cinerea” for “Septoria tritici”, “tomato Botrytis)” for “wheat leaf blotch)”, “20°” for “24°”, “24°” for “20°”, “3” for “19”
# as §2
# [5] = asterisk: 40 ppm test suspension
# [6] = no asterisk (standard test suspension concentration, not 40 ppm)
# [7] = asterisk: 40 ppm test suspension, 100 = 100% disease control, 0 = no control
Structure (SMILES),"Test A rating (100 = 100% disease control, 0 = no disease control relative to the controls) [1, 5]","Test D rating (100 = 100% disease control, 0 = no disease control relative to the controls) [2, 5]","Test B rating (100 = 100% disease control, 0 = no disease control relative to the controls) [3, 5]","Test C rating (100 = 100% disease control, 0 = no disease control relative to the controls) [4, 5]",also measured
COc1cc(F)c(C(O)c2cnc(C)n2-c2ccc(F)cc2Br)c(F)c1 (centres unmarked) [compound 322],28* %,0* %,2* %,0* %,
Cc1nc(Cl)c(C(O)c2ccc(Cl)cc2Cl)n1-c1ccc(F)cc1F (racemic) [compound 270],95* %,0* %,69* %,0* %,
Cc1cc(F)ccc1C(O)c1cnc(C)n1-c1c(F)cccc1F (centres unmarked) [compound 80],,,,,"Test A rating (100 = 100% disease control, 0 = no disease control relative to the controls) [1, 6]: 99%; Test D rating (100 = 100% disease control, 0 = no disease control relative to the controls) [2, 6]: 0%; Test B rating (100 = 100% disease control, 0 = no disease control relative to the controls) [3, 6]: 100%; Test C rating (100 = 100% disease control, 0 = no disease control relative to the controls) [4, 6]: 0%"
OC(c1ccc(F)cc1F)c1c(Br)nc(Cl)n1-c1c(F)cc(Cl)cc1F (centres unmarked) [compound 124],100* %,0* %,100* %,100* %,
COc1cc(F)c(-n2c(C)nc(Br)c2C(O)c2ccc(F)cc2F)c(F)c1 (centres unmarked) [compound 412],,,,,"Test A rating (% disease control, wheat leaf rust) [1, 7]: 100* %; Test D rating (% disease control, wheat powdery mildew) [2, 7]: 0* %; Test B rating (% disease control, wheat leaf blotch) [3, 7]: 100* %; Test C rating (% disease control, tomato Botrytis) [4, 7]: 0* %"
"OC(c1ccc(Cl)cc1)c1c(Cl)nc(Cl)n1-c1ccc(F)cc1Cl (single isomer, unassigned) [compound 48]",,,,,"Test A rating (100 = 100% disease control, 0 = no disease control relative to the controls) [1, 6]: 100%; Test D rating (100 = 100% disease control, 0 = no disease control relative to the controls) [2, 6]: 85%; Test B rating (100 = 100% disease control, 0 = no disease control relative to the controls) [3, 6]: 100%; Test C rating (100 = 100% disease control, 0 = no disease control relative to the controls) [4, 6]: 100%"
Cc1nc(Cl)c(C(O)c2c(F)cc(F)cc2F)n1-c1ccc(F)cc1Cl (centres unmarked) [compound 128],,,,,"Test A rating (100 = 100% disease control, 0 = no disease control relative to the controls) [1, 6]: 100%; Test D rating (100 = 100% disease control, 0 = no disease control relative to the controls) [2, 6]: 0%; Test B rating (100 = 100% disease control, 0 = no disease control relative to the controls) [3, 6]: 100%; Test C rating (100 = 100% disease control, 0 = no disease control relative to the controls) [4, 6]: 99%"
COc1ccc(C(O)c2c(C)nc(Cl)n2-c2c(F)cccc2Br)c(C)c1 (centres unmarked) [compound 213],100* %,91* %,100* %,100* %,
COc1ccc(C(O)c2c(Br)ncn2-c2ccc(F)cc2Cl)c(F)c1 (racemic) [compound 230],97* %,0* %,50* %,99* %,
COc1ccc(C(O)c2c(Br)nc(C)n2-c2ccc(F)cc2Br)c(F)c1 (centres unmarked) [compound 310],100* %,56* %,100* %,100* %,
COc1ccc(-n2c(C)nc(Br)c2C(O)c2ccc(F)cc2Cl)c(OC)c1 (racemic) [compound 217],0* %,0* %,0* %,42* %,

# Source: US20130143929A1, “FUNGICIDAL IMIDAZOLES” (EI DU PONT DE NEMOURS AND COMPANY, priority 2010, published 2013)
